Test results from ChEMBL document CHEMBL1201862, “PubChem BioAssay data set” (2004).
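Following 48 hours of exposure in 96-well plates, responses at five concentrations were used to interpolate endpoints linearly. The concentration for 50% growth inhibition is given as GI50.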 Calls of active or inactive are those of the source. Rule as the data show it: active = GI50 up to about 1.1 µM and inactive = higher.

How the values were obtained:
Assay in all cases: growth of human tumour cells (NCI), 48 h
OVCAR-8 = test system: OVCAR-8
M14 = test system: M14
RXF 393 = test system: RXF 393
SNB-75 = test system: SNB-75
CAKI-1 = test system: CAKI-1
OVCAR-4 = test system: OVCAR-4
RPMI-8226 = test system: RPMI-8226
DU-145 = test system: DU-145
LOX IMVI = test system: LOX IMVI
HT-29 = test system: HT-29
SK-MEL-2 = test system: SK-MEL-2
HCT-116 = test system: HCT-116
UACC-257 = test system: UACC-257
Hs-578T = test system: Hs-578T
NCI/ADR-RES = test system: NCI/ADR-RES
SF-268 = test system: SF-268
K562 = test system: K562
HCC 2998 = test system: HCC 2998
A549 = test system: A549
HCT-15 = test system: HCT-15

## COC(=O)CN(CC(O)C(NC(C)=O)C(O)C=O)C(=O)OCc1ccccc1 (stereo not given)
OVCAR-8
  GI50: > 100 µM (inactive)
M14
  GI50: > 100 µM (inactive)
RXF 393
  GI50: > 100 µM (inactive)
SNB-75
  GI50: > 100 µM (inactive)
CAKI-1
  GI50: > 100 µM (inactive)
OVCAR-4
  GI50: > 100 µM (inactive)
RPMI-8226
  GI50: > 100 µM (inactive)
DU-145
  GI50: > 100 µM (inactive)
LOX IMVI
  GI50: > 100 µM (inactive)
HT-29
  GI50: > 100 µM (inactive)
SK-MEL-2
  GI50: > 100 µM (inactive)
HCT-116
  GI50: > 100 µM (inactive)
UACC-257
  GI50: > 100 µM (inactive)
Hs-578T
  GI50: > 100 µM (inactive)
NCI/ADR-RES
  GI50: > 100 µM (inactive)
SF-268
  GI50: > 100 µM (inactive)
K562
  GI50: > 100 µM (inactive)
HCC 2998
  GI50: > 100 µM (inactive)
A549
  GI50: > 100 µM (inactive)
HCT-15
  GI50: > 31.6 µM

## O=[N+]([O-])/C(C(Cl)=C(Cl)Cl)=C(/Cl)SCc1ccccc1
OVCAR-8
  GI50: 1.34 µM (inactive)
M14
  GI50: 1.83 µM (inactive)
RXF 393
  GI50: 3.01 µM (inactive)
SNB-75
  GI50: 1.02 µM (active)
CAKI-1
  GI50: 3.18 µM (inactive)
OVCAR-4
  GI50: 2.85 µM (inactive)
RPMI-8226
  GI50: 0.889 µM (active)
DU-145
  GI50: 17.3 µM (inactive)
LOX IMVI
  GI50: 11.3 µM (inactive)
HT-29
  GI50: 11.5 µM (inactive)
SK-MEL-2
  GI50: 22.1 µM (inactive)
HCT-116
  GI50: 1.82 µM (inactive)
UACC-257
  GI50: 3.39 µM (inactive)
Hs-578T
  GI50: 4.48 µM (inactive)
NCI/ADR-RES
  GI50: 1.85 µM (inactive)
SF-268
  GI50: 12.4 µM (inactive)
K562
  GI50: 1.15 µM (inactive)
HCC 2998
  GI50: 24.8 µM (inactive)
A549
  GI50: 16.3 µM (inactive)
HCT-15
  GI50: 5 µM

## COc1ccc(/N=N/c2c(-c3c(OC)cc4occc4c3OC)[nH]c(=O)c(C#N)c2C)cc1
OVCAR-8
  GI50: > 100 µM (inactive)
M14
  GI50: > 100 µM (inactive)
RXF 393
  GI50: > 100 µM (inactive)
SNB-75
  GI50: 53.2 µM (inactive)
CAKI-1
  GI50: > 100 µM (inactive)
OVCAR-4
  GI50: > 100 µM (inactive)
RPMI-8226
  GI50: > 100 µM (inactive)
DU-145
  GI50: > 100 µM (inactive)
LOX IMVI
  GI50: > 100 µM (inactive)
HT-29
  GI50: > 100 µM (inactive)
SK-MEL-2
  GI50: > 100 µM (inactive)
HCT-116
  GI50: > 100 µM (inactive)
UACC-257
  GI50: > 100 µM (inactive)
Hs-578T
  GI50: > 100 µM (inactive)
NCI/ADR-RES
  GI50: > 100 µM (inactive)
SF-268
  GI50: > 100 µM (inactive)
K562
  GI50: > 100 µM (inactive)
HCC 2998
  GI50: > 100 µM (inactive)
A549
  GI50: > 100 µM (inactive)
HCT-15
  GI50: > 100 µM

## CN1CCN(c2ccc3nc(C4=C(O)C(=O)c5c(nc(CCl)n5C)C4=O)[nH]c3n2)CC1
OVCAR-8
  GI50: 8.05 µM (inactive)
M14
  GI50: 9.4 µM (inactive)
RXF 393
  GI50: 2.73 µM (inactive)
SNB-75
  GI50: 3.72 µM (inactive)
CAKI-1
  GI50: 13.5 µM (inactive)
OVCAR-4
  GI50: 15.7 µM (inactive)
RPMI-8226
  GI50: 26 µM (inactive)
DU-145
  GI50: 10.1 µM (inactive)
LOX IMVI
  GI50: 8.15 µM (inactive)
HT-29
  GI50: 11.6 µM (inactive)
SK-MEL-2
  GI50: 10 µM (inactive)
HCT-116
  GI50: 8.85 µM (inactive)
UACC-257
  GI50: 12.4 µM (inactive)
Hs-578T
  GI50: 18.7 µM (inactive)
NCI/ADR-RES
  GI50: > 50 µM (inactive)
SF-268
  GI50: 14.9 µM (inactive)
K562
  GI50: 24.2 µM (inactive)
HCC 2998
  GI50: 5.89 µM (inactive)
A549
  GI50: 30 µM (inactive)
HCT-15
  GI50: 38 µM

## COc1ccc(C[C@H]2NC(=O)/C=C/C[C@@H]([C@H](C)[C@H]3O[C@@H]3c3ccccc3)OC(=O)[C@H](CC(C)C)OC(=O)[C@H](C)CNC2=O)cc1
OVCAR-8
  GI50: 1.69e-05 µM (active)
M14
  GI50: 1.72e-05 µM (active)
RXF 393
  GI50: 9.27e-06 µM (active)
SNB-75
  GI50: 1.47e-05 µM (active)
CAKI-1
  GI50: 1.25e-05 µM (active)
OVCAR-4
  GI50: > 0.0001 µM (active)
RPMI-8226
  GI50: 2.85e-05 µM (active)
DU-145
  GI50: 2.96e-05 µM (active)
LOX IMVI
  GI50: 1.74e-05 µM (active)
HT-29
  GI50: 8.18e-06 µM (active)
SK-MEL-2
  GI50: > 4.42e-05 µM (active)
HCT-116
  GI50: 1.57e-05 µM (active)
UACC-257
  GI50: > 5.89e-05 µM (active)
Hs-578T
  GI50: 1.01e-05 µM (active)
NCI/ADR-RES
  GI50: > 0.0001 µM (active)
SF-268
  GI50: 7.13e-05 µM (active)
K562
  GI50: 9.27e-06 µM (active)
HCC 2998
  GI50: 4.45e-05 µM (active)
A549
  GI50: 3.16e-05 µM (active)
HCT-15
  GI50: 4.28e-05 µM

## CC(CCC(=O)O)(c1cc(Br)c(O)c(Br)c1)c1cc(Br)c(O)c(Br)c1
OVCAR-8
  GI50: 78.2 µM (inactive)
M14
  GI50: 33.3 µM (inactive)
RXF 393
  GI50: 54.8 µM (inactive)
SNB-75
  GI50: 55.7 µM (inactive)
CAKI-1
  GI50: > 100 µM (inactive)
OVCAR-4
  GI50: > 100 µM (inactive)
RPMI-8226
  GI50: 48.8 µM (inactive)
DU-145
  GI50: 70.3 µM (inactive)
LOX IMVI
  GI50: 45.5 µM (inactive)
HT-29
  GI50: 93.1 µM (inactive)
SK-MEL-2
  GI50: 52.4 µM (inactive)
HCT-116
  GI50: 50.4 µM (inactive)
UACC-257
  GI50: 76 µM (inactive)
Hs-578T
  GI50: > 100 µM (inactive)
NCI/ADR-RES
  GI50: 83.8 µM (inactive)
SF-268
  GI50: 59.7 µM (inactive)
K562
  GI50: 71.3 µM (inactive)
HCC 2998
  GI50: 30.1 µM (inactive)
A549
  GI50: > 100 µM (inactive)
HCT-15
  GI50: 54.3 µM

## CC(C)OC(=O)c1ccc(CCC2=CC(=O)C=CC2=O)cc1
OVCAR-8
  GI50: 7.21 µM (inactive)
M14
  GI50: 15.2 µM (inactive)
RXF 393
  GI50: 11.8 µM (inactive)
SNB-75
  GI50: 22.5 µM (inactive)
CAKI-1
  GI50: 1.98 µM (inactive)
OVCAR-4
  GI50: 14.8 µM (inactive)
RPMI-8226
  GI50: 2.79 µM (inactive)
DU-145
  GI50: 15.2 µM (inactive)
LOX IMVI
  GI50: 4.1 µM (inactive)
HT-29
  GI50: 18.1 µM (inactive)
SK-MEL-2
  GI50: 19.1 µM (inactive)
HCT-116
  GI50: 11.8 µM (inactive)
UACC-257
  GI50: 12.1 µM (inactive)
Hs-578T
  GI50: 13 µM (inactive)
NCI/ADR-RES
  GI50: 7.78 µM (inactive)
SF-268
  GI50: 13.7 µM (inactive)
K562
  GI50: 3.04 µM (inactive)
HCC 2998
  GI50: 16.8 µM (inactive)
A549
  GI50: 25.4 µM (inactive)
HCT-15
  GI50: 8.81 µM
